Data from the NIST ThermoML archive (doi:10.1021/je700055p).

Experiment: relative permittivity at various frequencies (dimensionless)
Conditions: 101.3 kPa, Liquid, Frequency=1 MHz, Coaxial cylinder capacitor

CC#N [acetonitrile]
Conditions	relative permittivity
288.15 K	37.52
293.15 K	36.62
298.15 K	35.88
303.15 K	35.15
308.15 K	34.45
313.15 K	33.75
318.15 K	33.01
323.15 K	32.36
328.15 K	31.62
333.15 K	31.05
